Like-named read-outs stand apart in the source and are kept apart here.
Key:
rats [1] = assay: Acute oral toxicity testing; format: in vivo, rat
[2] = Plasma toxicokinetic study; format: in vivo, rat; conditions: for C max / K el / t 1/2 / Bioavailability (relative): 300 mg test item/kg PO; for Bioavailability (relative): vs CoCl2 IV
[3] = Bioelution in simulated gastric fluid; conditions: simulated gastric fluid pH 1.5, 2 h, 37°C
[4] = Bioelution in simulated intestinal fluid; conditions: simulated intestinal fluid pH 7.4, 24 h
rats [5] = conditions: oral, ref Domingo et al. (1984), cited from earlier work
[6] = listed as Co Sulfate Heptahydrate

| SMILES | Acute LD50 (mg Co/kg bw) (rats [1]; OECD 401 or 425) | Acute LD50 (mg substance/kg bw) (rats [1]; OECD 401 or 425, listed as Co Lithium Dioxide) | C max ([2]; females) | K el ([2]; females) | t 1/2 ([2]; females) | Bioavailability (relative) ([2]; females) | Bioavailability (relative) ([2]; females, listed as Co lithium dioxide) | C max ([2]; males) | K el ([2]; males) | t 1/2 ([2]; males) | Bioavailability (relative) ([2]; males) | Bioavailability (relative) ([2]; males, listed as Co lithium dioxide) | Bioavailability calculated from AUC as % of CoCl2 IV AUC, average of m + f: relative bioavailability ([2]; oral, rats, average of males and females) | Bioelution of Co in gastric fluid (% release), 2 h [3] | Bioelution of Co in intestinal fluid (% release) [4] | Bioelution of Co in intestinal fluid / cobalt release (µg Co/g sample) ([4]; listed as Co Lithium Dioxide) | Acute LD50 (mg Co/kg bw) (rats [5]) | Acute LD50 (mg substance/kg bw) (rats [5]) | Acute LD50 (mg substance/kg bw) (rats [5]; [6]) | Bioelution of Co in intestinal fluid / cobalt release (µg Co/g sample) [4, 6] |
| --- | --- | --- | --- | --- | --- | --- | --- | --- | --- | --- | --- | --- | --- | --- | --- | --- | --- | --- | --- | --- |
| [Li+].[O]=[Co][O-] [CoLiO2, Cobalt lithium oxide] | > 3011 mg Co/kg bw | > 5000 mg substance/kg bw | 2.88 ng/mL | 0.0568 h⁻¹ | 12.20 h | 0.25 (relative) % | 0.25% | 3.45 ng/mL | 0.0535 h⁻¹ | 13.0 h | 0.30 (relative) % | 0.3% | Relative bioavailability 0.28% | 5.9 % release | 0.02 (24 h) % release | 134 (24 h) µg Co/g sample |  |  |  |  |
| O.O.O.O.O.O.O.O=S(=O)([O-])[O-].[Co+2] [CoSO4, Cobalt sulfate heptahydrate] |  |  |  |  |  |  |  |  |  |  |  |  |  | 99.7 % release | 64 (24 h) % release |  | 65 mg Co/kg bw | below 1000 mg substance/kg bw | 310 [Domingo et al. (1984)] mg substance/kg bw | 139 000 (24 h) µg Co/g sample |
